A short description of series [1]: Pharmacokinetics in dogs treated with a promotor (pentagastrin) or an inhibitor (omeprazole) of gastric acid secretion. The format is in vivo, dogs (male beagle). Conditions: dog; for Cmax / AUC(0-inf) / AUC(0-t) / Tmax / half-life: male, beagle, plasma, po, 10 mg, fasted, mean; for Cmax: oral 10 mg/capsule (free form equivalent); for AUC(0-inf) / AUC(0-t) / Tmax / half-life: oral 10 mg/capsule. The procedure:
The pharmacokinetics of hydrobromide of the Triazine compound A and the Triazine compound A under gastric acid secretion and gastric pH adjustment was evaluated by using dogs treated with a promotor of gastric acid secretion or an inhibitor of gastric acid secretion according to a crossover method of 2 groups with 4 phases.
Pentagastrin was used in the treatment of a promotor of gastric acid secretion. Pentagastrin (2.8 mg) was dissolved into dimethylsulfoxide (7.0 mL) and water for injection (7.0 mL) to prepare an administration solution, and administered into a muscle in the thigh at a dose of […]. Pentagastrin was administered 0.5 hour before and 0.5 hour after the administration of each test material (hydrobromide of the Triazine compound A (Compound 1 prepared in Example 1) or the Triazine compound A (Compound 10 prepared in Example 1)). Omeprazole was used in the treatment of an inhibitor of gastric acid secretion. Omeprazole (90 mg) was dissolved into a 1:1 mixed solution (22.5 mL) of a 0.1% aqueous solution of sodium hydrogen carbonate (w/v) and polyethyleneglycol 400 to prepare an administration solution, and administered into a saphenous vein of the hind limb at a dose of 1 mg/0.25 mL/kg. Omeprazole was administered 1 hour before the administration of each test material.
After 25 mL of water for injection was administered to each dog by using a syringe having an oral catheter, the hydrobromide of the Triazine compound A or the Triazine compound A was forcedly orally administered to each dog at a dose of 10 mg/capsule (in case of hydrobromide of the Triazine compound A, free form equivalent (i.e., 10 mg in terms of the Triazine compound A)), and additional 25 mL of water for injection was administered to each dog through the syringe having an oral catheter. Each test material was administered under fasting state, and each dog was fed 6 hours after the administration. Each dog was deprived of water from 1 hour before the administration of each test material to 2 hours after the administration.
Tests were carried out by using 6 heads of 4 year-old male beagle and dividing them into two groups, each of which comprises 3 heads. The dogs in Group 1 were subjected to the administration in the order of (Phase 1) omeprazole administration, then the Triazine compound A administration, (Phase 2) omeprazole administration, then the hydrobromide of the Triazine compound A administration, (Phase 3) pentagastrin administration, then the Triazine compound A administration, and (Phase 4) pentagastrin administration, then the hydrobromide of the Triazine compound A administration, and the dogs in Group 2 were subjected to the administration in the order of (Phase 1) omeprazole administration, then the hydrobromide of the Triazine compound A administration, (Phase 2) omeprazole administration, then the Triazine compound A administration, (Phase 3) pentagastrin administration, then the hydrobromide of the Triazine compound A administration, and (Phase 4) pentagastrin administration, then the Triazine compound A administration, and washout period between each phase was 6 or 7 days. After 15 minutes, 30 minutes, 1, 2, 4, 6, 8, and 24 hour(s) from the administration of the hydrobromide of the Triazine compound A or the Triazine compound A, 0.6 mL of whole blood sample was collected under awakening of each dog from a cephalic vein by using a heparin sodium injection. The whole blood sample was processed into a plasma, and the drug concentration of the Triazine compound A was analyzed by using liquid chromatography-tandem mass spectrometry (LC-MS/MS). […]

The next series has as its target T1, human CYP11B2 (Homo sapiens, UniProt P19099).
T1 construct: expressed in transfected cells; the mitochondrial fraction was used
T1 sequence (P19099 25-503): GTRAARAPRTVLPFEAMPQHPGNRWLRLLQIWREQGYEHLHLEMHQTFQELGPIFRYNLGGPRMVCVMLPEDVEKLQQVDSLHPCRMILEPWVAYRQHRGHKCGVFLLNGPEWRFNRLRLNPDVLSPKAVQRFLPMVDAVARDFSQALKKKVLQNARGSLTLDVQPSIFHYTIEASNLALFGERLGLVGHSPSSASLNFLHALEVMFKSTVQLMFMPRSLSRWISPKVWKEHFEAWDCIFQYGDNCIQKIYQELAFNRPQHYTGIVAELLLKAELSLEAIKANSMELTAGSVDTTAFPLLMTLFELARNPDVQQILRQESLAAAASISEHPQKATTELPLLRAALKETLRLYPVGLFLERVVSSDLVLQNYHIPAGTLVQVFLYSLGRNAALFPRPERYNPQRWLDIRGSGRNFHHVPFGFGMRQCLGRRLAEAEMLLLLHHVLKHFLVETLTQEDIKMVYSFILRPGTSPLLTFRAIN
The series can be described thus: Aldosterone synthase (CYP11B2) inhibitory activity measurement. The format is biochemical. The conditions noted are these: mitochondrial fraction of V79 cells expressing human CYP11B2; deoxycorticosterone substrate; HTRF; read-out: IC50 (aldosterone production inhibition). The procedure: The pcDNA3.1-human CYP11B2 plasmid was transfected into a Chinese hamster lung fibroblast V79 cell line to produce a cell line stably expressing a human CYP11B2 gene.
The cells were cultured and grown in the Dulbecco's modified Eagle's/Ham's medium supplemented with 10% fetal bovine serum and 1% G418 disulfate solution under the environment of 37° C., 95% air, and 5% CO2, and the grown cells were harvested.
Then, the cells were fractionated to obtain mitochondria by reference to a method described in Chabre et al. JCE & M 85 (11) 4060-68, 2000. In particular, the cells suspended in a 5 mmol/L Tris-HCl buffer (pH 7.4) containing 250 mmol/L sucrose were homogenized in a Teflon (registered trademark) Potter Elvehjem homogenizer, and then the suspension was centrifuged (800×g, 15 min). […]
The mitochondrial fraction diluted with a buffer containing 10 mmol/L KH2PO4, 10 mmol/L Tris, 20 mmol/L KCl, 25 mmol/L sucrose, 5 mmol/L MgCl2, and 0.05% bovine serum albumin was dispensed to a 96 well plate. […] The amount of the produced aldosterone in the incubated solution was determined by using HTRF (Homogeneous Time Resolved Fluorescence) method.
IC50 (nmol/L) was calculated by analyzing the aldosterone production inhibition rate (%) of each concentration of the Triazine compound A of the present invention by non-linear regression to a logistic curve.

Series [2] can be described thus: Chemical stability evaluation (storage 1 week, liquid chromatography peak area %). The series is classed as physicochemical. The conditions noted are these: did not show a significant increase of related substances. The procedure:
Each about 1 mg of a sample stored at 60° C. (sealed) or 60° C./75% RH (open) for 1 week and an unstored sample (at the start of test) was dissolved into a mixed solution of acetonitrile/water (1:1) (5 mL) to obtain each sample solution. A test was carried out by liquid chromatographic method under the following conditions to measure each peak area (%).
Each peak area (%) was measured by using Waters ACQUITY UPLC under the following conditions. • Detector: Photodiode array (measurement wavelength: 239 nm) • Column: Waters ACQUITY BEH C18 (2.1 mm×100 mm, 1.7 μm) • Column temperature: constant temperature about 40° C. • Mobile phase: Solution A; water/TFA (2000:1), Solution B; Acetonitrile/TFA (2000:1) • Concentration gradient control: B % 2→100% (15 minutes) • Flow rate: 0.5 mL/min • Injection volume: 2 μL
Each sample was stored at 60° C. under a sealed condition and at 60° C. under 75% RH for 1 week, and an increase or decrease of related substance(s) after the storage was calculated by high-performance liquid chromatographic method on the basis of the area percentage of each peak. Also, the condition of each sample after the storage was observed.

A short description of series [3]: Hygroscopicity or deliquescency evaluation (moisture adsorption, DVS). The format is physicochemical. The procedure:
Hygroscopicity or deliquescency was evaluated as follows by using a moisture adsorption measurement device DVS-1 or DVS-intrinsic (Surface Measurement Systems Limited). Each sample (about 5 mg) was placed into an aluminum plate of which the tare weight had been corrected in advance, and the plate was hung on the precision balance of said device to precisely measure the weight at the start of measurement. The humidity was changed in a stepwise manner in a chamber at 25° C., the weight change was recorded with time, and the equilibrium weight was calculated at each humidity. On the basis of the weight at a dried condition (0% RH), the weight change rate and hydration number at each humidity were calculated.
Hygroscopicity or deliquescency was evaluated as follows by using a moisture adsorption measurement device DVS-1 or DVS-intrinsic (Surface Measurement Systems Limited). Each sample was placed into a cell of which the tare weight had been corrected in advance, and the cell was hung on the precision balance of said device to precisely measure the weight at the start of measurement. The humidity was changed in a stepwise manner, the weight change was recorded with time, and the equilibrium weight was calculated at each humidity. On the basis of the weight of anhydride converted from the amount of water at a dried condition (0% RH) or at the start of measurement observed by an alternative method, the weight change rate at each humidity was calculated.

The nature of series [4]: Thermal stability evaluation (TG/DTA weight change). The format is physicochemical. The conditions noted are these: for Thermal stability TG: weight change: 25-274° C. The procedure:
Thermal stability was measured and evaluated by using a thermogravimetry/differential thermal analyzer TG/DTA7200 (SII NanoTechnology Inc.) under the following conditions. • Rate of temperature increase: 10° C./min • Range of temperature increase: 25 to 300° C. • Atmosphere: nitrogen 200 mL/min <Hygroscopicity or Deliquescency Evaluation>
Thermal stability was measured and evaluated by using a thermogravimetry/differential thermal analyzer TG/DTA7200 (SII NanoTechnology Inc.) under the following conditions • Rate of temperature increase: 10° C./min • Range of temperature increase: 30 to 300° C. • Atmosphere: nitrogen 200 mL/min • or • using a TGA/DSC1 thermogravimetric analyzer (manufactured by Mettler Toledo, STARe system) under the following conditions. • Rate of temperature increase: 10° C./min • Range of temperature increase: 25 to 300° C. • Atmosphere: nitrogen 50 mL/min <Hygroscopicity or Deliquescency Evaluation>

Where [5] appears, read: Omeprazole, reduced gastric acid secretion.
Setting [6] is: Pentagastrin, increased gastric acid secretion.

One may read the Cmax as the highest concentration seen after dosing. In general, AUC(0-inf) refers to the area under the concentration-time curve extrapolated to infinity. Low values mean low exposure, high ones high exposure. What is called AUC(0-t) is exposure summed from dosing to a finite time, without extrapolation to infinity. Low values mean low exposure, high ones high exposure. What is called Tmax is the time at which the peak concentration occurs. What is called half-life is the time in which the quantity being followed falls by half. By IC50 is commonly meant the concentration that inhibits the measured activity by half. Regarding `CC(=O)N[C@H]1CC[C@H](NC(=O)CN2CCN(c3nncc(-c4ccc(C)cc4)n3)CC2)CC1` [Triazine compound A, 3-[4-[[trans-4-(acetamino)cyclohexyl]carbamoylmethyl]piperazin-1-yl]-5-(p-tolyl)-1,2,4-triazine], in series [1] (oral 10 mg), the “Reduction of AUC under reduced gastric acid conditions as compared to increased gastric acid secretion conditions” value was “about 50%” and the “Reduction of Cmax under reduced gastric acid conditions as compared to increased gastric acid secretion conditions” value is listed as “about 50%”. Moreover, in series [1] (setting [5]), the peak concentration (Cmax) worked out at 102 ng/mL, the area under the curve AUC(0-inf) worked out at 1000 ng·h/mL, the exposure AUC(0-t) came out at 943 ng·h/mL and the Tmax was found to be 3.33 h. In series [1] (setting [5]), this molecule showed a half-life of 336 min. Further, in series [1] (setting [6]), the Cmax was 222 ng/mL, the AUC(0-inf) amounted to 1910 ng·h/mL, the AUC(0-t) worked out at 1690 ng·h/mL and the time of peak concentration (Tmax) was determined as 1.42 h. In series [1] (setting [6]), this molecule showed a half-life of 256 min. Moreover, the IC50 on human CYP11B2 was 9 nM.
Take `Br.CC(=O)N[C@H]1CC[C@H](NC(=O)CN2CCN(c3nncc(-c4ccc(C)cc4)n3)CC2)CC1` [Hydrobromide Form A crystal, 3-[4-[[trans-4-(acetamino)cyclohexyl]carbamoylmethyl]piperazin-1-yl]-5-(p-tolyl)-1,2,4-triazine hydrobromide]: in series [2], the “Chemical stability, conclusion in words” value is “excellent chemical stability”. For the same molecule, the “Hygroscopicity or Deliquescency Weight change at 90% RH” value in series [3] (Table 5, 25° C., relative to weight at 0% RH) came to 1.0%. Moreover, the “Hygroscopicity or Deliquescency Weight change at 90% RH” value in series [3] (Table 10, *1 with hydration stage) was determined as 1.0% ^. For the same molecule, in series [3] (from Table 5), the “Hygroscopicity or deliquescency, conclusion in words” value is recorded as “excellent in the reduced hygroscopicity or deliquescency”. For the same molecule, the “Change of plasma concentration with the gastric acid conditions” value in series [1] (oral 10 mg free form equivalent, pentagastrin vs omeprazole) is “not changed”. Also, in series [1] (setting [5]), the Cmax is 256 ng/mL, the AUC(0-inf) stood at 2030 ng·h/mL, the AUC(0-t) was determined as 1990 ng·h/mL and the time of peak concentration (Tmax) was 1.83 h. This molecule had a half-life in series [1] (setting [5]) of 258 min. Further, in series [1] (setting [6]), the Cmax is 263 ng/mL, the total exposure AUC(0-inf) stood at 2020 ng·h/mL, the exposure AUC(0-t) is 1990 ng·h/mL and the Tmax was found to be 1.67 h. In series [1] (setting [6]), this molecule had a half-life of 254 min. Further, the “Thermal stability TG: weight change” value in series [4] worked out at 0.9%. For the same molecule, the “Thermal stability TG: weight change” value in series [4] (Table 10) is 0.98. In series [4] (did not show a significant weight change (Succinate Form A: at 25 to 148° C., melting point)), the “Thermal stability, conclusion in words” value was “excellent thermal stability”.

The values above are taken from patent US12686666B2, “Triazine compound salt, crystal form thereof, and production method therefor” (TANABE PHARMA CORPORATION, priority 2020, dated 2026).
